Experimental data: US20060223996A1, “IL-12 modulatory compounds” (Synta Pharmaceuticals Corp., priority 2004, published 2006)

Test system: IL-12
Assay: Human in vitro assay: inhibition of IL-12 production in IFNγ/LPS- or IFNγ/SAC-stimulated human PBMC or THP-1 cells (ELISA)
Format: cell-based
Settings: read-out: IC50 Range (representative in vitro IC50 data)
How it was run: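 PBMC (5×10^5 cells/well) primed with IFNγ 30 U/mL for 22 h then LPS 1 μg/mL, or IFNγ 100 U/mL then SAC 0.01%; THP-1 primed with IFNγ 100 U/mL for 22 h then SAC 0.025%, with compound in 0.25% DMSO. Supernatant IL-12 p70/p40 measured by sandwich ELISA after 18 h; IC50 derived; viability by MTS.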

| Compound | IC50 |
| --- | --- |
| O=C1Cc2cc(NC(=O)c3cc(OCCN4CCOCC4)nc(N4CCOCC4)n3)ccc2N1 [Compound 197, 2-morpholino-6-(2-morpholinoethoxy)-N-(2-oxoindolin-5-yl)pyrimidine-4-carboxamide] | ≥ 1000 nM |
| Cc1[nH]c2ccc(NC(=O)Nc3cc(OCCN4CCOCC4)nc(N4CCOCC4)n3)cc2c1C [Compound 323, 1-(2,3-Dimethyl-1H-indol-5-yl)-3-[2-morpholin-4-yl-6-(2-morpholin-4-yl-ethoxy)-pyrimidin-4-yl]-urea] | < 1000 nM |
| CCc1c[nH]c2ccc(NC(=O)c3cc(N4CCC5(CC4)OCCO5)nc(N4CCOCC4)n3)cc12 [Compound 175, 6-(1,4-Dioxa-8-aza-spiro[4.5]dec-8-yl)-2-morpholin-4-yl-pyrimidine-4-carboxylic acid (3-ethyl-1H-indol-5-yl)-amide] | < 1000 nM |
| Cc1cccc(NNC(=O)c2cc(N3CCOCC3)nc(OCCc3ccccn3)n2)c1 [Compound 78, 6-Morpholin-4-yl-2-(2-pyridin-2-yl-ethoxy)-pyrimidine-4-carboxylic acid N′-m-tolyl-hydrazide] | < 1000 nM |
| CN1CCCc2ccc(NC(=O)c3cc(OCCN4CCOCC4)nc(N4CCOCC4)n3)cc21 [Compound 317, 2-Morpholin-4-yl-6-(2-morpholin-4-yl-ethoxy)-pyrimidine-4-carboxylic acid (1-methyl-1,2,3,4-tetrahydro-quinolin-7-yl)-amide] | < 1000 nM |
| Cc1cccc(C(=O)Nc2nc(OCCc3ccccn3)cc(N3CCOCC3)n2)c1 [Compound 75, 3-Methyl-N-[4-morpholin-4-yl-6-(2-pyridin-2-yl-ethoxy)-pyrimidin-2-yl]-benzamide] | ≥ 1000 nM |
| Cc1cccc(NC(=O)c2cc(N(C)CCO)nc(N3CCOCC3)n2)c1 [Compound 298, 6-[(2-Hydroxy-ethyl)-methyl-amino]-2-morpholin-4-yl-pyrimidine-4-carboxylic acid m-tolylamide] | < 1000 nM |
| COc1ccc(CCOc2cc(C(=O)Nc3cccc(C)c3)cc(N3CCOCC3)n2)cc1OC [Compound 65, 2-[2-(3,4-Dimethoxy-phenyl)-ethoxy]-6-morpholin-4-yl-N-m-tolyl-isonicotinamide] | ≥ 1000 nM |
| O=C(Nc1nnc(C2CC2)s1)c1cc(OCCN2CCOCC2)nc(N2CCOCC2)n1 [Compound 163, 2-Morpholin-4-yl-6-(2-morpholin-4-yl-ethoxy)-pyrimidine-4-carboxylic acid (5-cyclopropyl-[1,3,4]thiadiazol-2-yl)-amide] | ≥ 1000 nM |
| Cc1[nH]c2ccc(NC(=O)c3cc(OCCN4CCOCC4)nc(N4CCOCC4)c3)cc2c1C [Compound 66, N-(2,3-Dimethyl-1H-indol-5-yl)-2-morpholin-4-yl-6-(2-morpholin-4-yl-ethoxy)-isonicotinamide] | ≥ 1000 nM |
| Cc1c[nH]c2ccc(NC(=O)c3cc(N4CCC(O)CC4)nc(N4CCOCC4)n3)cc12 [Compound 187, 6-(4-Hydroxy-piperidin-1-yl)-2-morpholin-4-yl-pyrimidine-4-carboxylic acid (3-methyl-1H-indol-5-yl)-amide] | < 1000 nM |
| CN(CCO)c1cc(C(=O)Nc2cccc(N3CCCC3)c2)nc(N2CCOCC2)n1 [Compound 310, 6-[(2-Hydroxy-ethyl)-methyl-amino]-2-morpholin-4-yl-pyrimidine-4-carboxylic acid (3-pyrrolidin-1-yl-phenyl)-amide] | < 1000 nM |
| Cc1cccc(NC(=O)c2cc(OCCc3ccccn3)nc(N3CCOCC3)n2)n1 [Compound 34, 2-Morpholin-4-yl-6-(2-pyridin-2-yl-ethoxy)-pyrimidine-4-carboxylic acid (6-methyl-pyridin-2-yl)-amide] | ≥ 1000 nM |
| Cc1[nH]c2ccc(NC(=O)c3cc(NCC(=O)N(C)C)nc(N4CCOCC4)n3)cc2c1C [Compound 112, 6-(Dimethylcarbamoylmethyl-amino)-2-morpholin-4-yl-pyrimidine-4-carboxylic acid (2,3-dimethyl-1H-indol-5-yl)-amide] | < 1000 nM |
| O=C(Nc1ccc2[nH]c3c(c2c1)CCCC3)c1cc(N2CCC(O)CC2)cc(N2CCOCC2)n1 [Compound 185, 4-Hydroxy-6′-morpholin-4-yl-3,4,5,6-tetrahydro-2H-[1,4′]bipyridinyl-2′-carboxylic acid (6,7,8,9-tetrahydro-5H-carbazol-3-yl)-amide; compound with methanesulfonic acid] | < 1000 nM |
| Cc1[nH]c2ccc(NC(=O)c3cc(N(CCO)CCO)nc(N4CCOCC4)n3)cc2c1C [Compound 91, 6-[Bis-(2-hydroxy-ethyl)-amino]-2-morpholin-4-yl-pyrimidine-4-carboxylic acid (2,3-dimethyl-1H-indol-5-yl)-amide] | < 1000 nM |
| Cc1[nH]c2ccc(NC(=O)c3cc(CN4CCOCC4)nc(N4CCOCC4)n3)cc2c1C [Compound 259, N-(2,3-dimethyl-1H-indol-5-yl)-2-morpholino-6-(morpholinomethyl)pyrimidine-4-carboxamide] | < 1000 nM |

| Compound | IC50 |
| --- | --- |
| Cc1[nH]c2ccc(NC(=O)c3cc(N4CCOCC4)cc(N4CCOCC4)n3)cc2c1C [Compound 30, 4,6-Di-morpholin-4-yl-pyridine-2-carboxylic acid (2,3-dimethyl-1H-indol-5-yl)-amide] | < 1000 nM |
| COCCN(C)c1cc(C(=O)Nc2cccc(C(C)C)c2)nc(N2CCOCC2)n1 [Compound 205, N-(3-isopropylphenyl)-6-((2-methoxyethyl)(methyl)amino)-2-morpholinopyrimidine-4-carboxamide] | < 1000 nM |
| COCCN(C)c1cc(C(=O)Nc2cccc(-n3cccn3)c2)nc(N2CCOCC2)n1 [Compound 311, 6-[(2-Methoxy-ethyl)-methyl-amino]-2-morpholin-4-yl-pyrimidine-4-carboxylic acid (3-pyrazol-1-yl-phenyl)-amide] | < 1000 nM |
| Cc1ccc2cc(NC(=O)Nc3cc(OCCN4CCOCC4)nc(N4CCOCC4)n3)ccc2n1 [Compound 136, 1-(2-Methyl-quinolin-6-yl)-3-[2-morpholin-4-yl-6-(2-morpholin-4-yl-ethoxy)-pyrimidin-4-yl]-urea] | < 1000 nM |
| COCCOc1cc(C(=O)Nc2ccc3[nH]c(C)c(C)c3c2)nc(N2CCOCC2)n1 [Compound 301, 6-(2-Methoxy-ethoxy)-2-morpholin-4-yl-pyrimidine-4-carboxylic acid (2,3-dimethyl-1H-indol-5-yl)-amide] | < 1000 nM |
| O=C(Nc1ccc(Cl)c(Cl)c1)Nc1cc(N2CCOCC2)nc(OCCN2CCOCC2)n1 [Compound 119, 1-(3,4-Dichloro-phenyl)-3-[6-morpholin-4-yl-2-(2-morpholin-4-yl-ethoxy)-pyrimidin-4-yl]-urea] | ≥ 1000 nM |
| COCCN(C)c1cc(C(=O)Nc2cccc(-c3nn(C)cc3Br)c2)nc(N2CCOCC2)n1 [Compound 235, 6-[(2-Methoxy-ethyl)-methyl-amino]-2-morpholin-4-yl-pyrimidine-4-carboxylic acid [3-(4-bromo-1-methyl-1H-pyrazol-3-yl)-phenyl]-amide] | ≥ 1000 nM |
| Cc1[nH]c2ccc(NC(=O)c3cc(N4CCCCC4)cc(N4CCOCC4)n3)cc2c1C [Compound 182, 6′-Morpholin-4-yl-3,4,5,6-tetrahydro-2H-[1,4′]bipyridinyl-2′-carboxylic acid (2,3-dimethyl-1H-indol-5-yl)-amide] | < 1000 nM |
| Cc1c(C)n(C)c2ccc(NC(=O)c3cc(N4CCOCC4)cc(N4CCOCC4)n3)cc12 [Compound 147, 4,6-Di-morpholin-4-yl-pyridine-2-carboxylic acid (1,2,3-trimethyl-1H-indol-5-yl)-amide] | < 1000 nM |
| Cc1[nH]c2ccc(NC(=O)c3cc(N(C)CCO)nc(N4CCOCC4)n3)cc2c1C [Compound 189, N-(2,3-dimethyl-1H-indol-5-yl)-6-((2-hydroxyethyl)(methyl)amino)-2-morpholinopyrimidine-4-carboxamide] | < 1000 nM |
| COCCN(C)c1cc(C(=O)Nc2nc3cc(C)c(C)cc3s2)nc(N2CCOCC2)n1 [Compound 203, N-(5,6-dimethylbenzo[d]thiazol-2-yl)-6-((2-methoxyethyl)(methyl)amino)-2-morpholinopyrimidine-4-carboxamide] | ≥ 1000 nM |
| O=C(Nc1ccnc(N2CCCC2)c1)c1cc(OCCN2CCOCC2)nc(N2CCOCC2)n1 [Compound 151, 2-Morpholin-4-yl-6-(2-morpholin-4-yl-ethoxy)-pyrimidine-4-carboxylic acid (2-pyrrolidin-1-yl-pyridin-4-yl)-amide] | < 1000 nM |
| CN1CCCc2cc(NC(=O)c3cc(OCCN4CCOCC4)nc(N4CCOCC4)n3)ccc21 [Compound 318, 2-Morpholin-4-yl-6-(2-morpholin-4-yl-ethoxy)-pyrimidine-4-carboxylic acid (1-methyl-1,2,3,4-tetrahydro-quinolin-6-yl)-amide] | ≥ 1000 nM |
| Cc1[nH]c2ccc(NCc3cc(OCCc4ccccn4)nc(N4CCOCC4)n3)cc2c1C [Compound 84, (2,3-Dimethyl-1H-indol-5-yl)-[2-morpholin-4-yl-6-(2-pyridin-2-yl-ethoxy)-pyrimidin-4-ylmethyl]-amine] | < 1000 nM |
| Cc1cccc(NC(=O)Nc2cc(OCCN3CCOCC3)nc(N3CCOCC3)n2)c1 [Compound 9, 1-[2-Morpholin-4-yl-6-(2-morpholin-4-yl-ethoxy)-pyrimidin-4-yl]-3-m-tolyl-urea] | < 1000 nM |
| CC(=O)N1CCN(C(=O)CNc2cc(C(=O)Nc3ccc4[nH]c(C)c(C)c4c3)nc(N3CCOCC3)n2)CC1 [Compound 102, 6-[2-(4-Acetyl-piperazin-1-yl)-2-oxo-ethylamino]-2-morpholin-4-yl-pyrimidine-4-carboxylic acid (2,3-dimethyl-1H-indol-5-yl)-amide] | < 1000 nM |
| CCc1cccc(NC(=O)c2cc(OCCN3CCOCC3)nc(N3CCOCC3)n2)c1 [Compound 46, 2-Morpholin-4-yl-6-(2-morpholin-4-yl-ethoxy)-pyrimidine-4-carboxylic acid (3-ethyl-phenyl)-amide] | ≥ 1000 nM |
